Laboratory results taken from ChEMBL document CHEMBL1127503, “3'-(Arylmethyl)- and 3'-(aryloxy)-3-phenyl-4-hydroxyquinolin-2(1H)-ones: orally active antagonists of the glycine site on the NMDA receptor” (J Med Chem, 1994).

What was measured:
Rattus norvegicus = organism: Rattus norvegicus; experiment: Blockade of NMDA-induced depolarizations on rat cortical slices; assay type: functional
[1] = molecular target: Glutamate receptor ionotropic, NMDA 1 (Rattus norvegicus, UniProt P35439); experiment: Inhibition of the binding of [3H]L-689,560 ([3H]-4) to the strychnine-insensitive glycine site on rat brain membranes; assay type: cell membranes, Membrane
Mus musculus [2] = experiment: Protection from audiogenic seizure in the DBA/2 mouse 30 min after intraperitoneal administration; assay type: functional; settings: ip, 0.5 h
Mus musculus [3] = experiment: Protection from audiogenic seizure in the DBA/2 mouse 30 min after oral administration; assay type: functional; settings: 0.5 h
Mus musculus [4] = experiment: Protection from audiogenic seizure in the DBA/2 mouse 10 min after intraperitoneal administration; assay type: functional; settings: ip

Row | Compound | IC50 [1] | Kb (Rattus norvegicus) | ED50 (Mus musculus [2]) | ED50 (Mus musculus [3]) | ED50 (Mus musculus [4])
1 | Oc1nc2cc(Cl)ccc2c(O)c1-c1cccc(Cc2ccsc2)c1 | 2.3 nM | 19 nM | 1.5 mg/kg | 5.1 mg/kg | 
2 | O=C(Nc1ccccc1)N[C@H]1C[C@H](C(=O)O)Nc2cc(Cl)cc(Cl)c21 | 4 nM | 110 nM | > 100 mg/kg |  | 
3 | COc1ccc(Cc2cccc(-c3c(O)c4ccc(Cl)cc4[nH]c3=O)c2)cc1 | 4.5 nM | 25 nM | 0.7 mg/kg | 0.9 mg/kg | 
4 | O=C(O)CCc1c(C(=O)O)[nH]c2cc(Cl)cc(Cl)c12 | 69 nM | 1320 nM | > 100 mg/kg |  | 
5 | O=c1[nH]c2cc(Cl)ccc2c(O)c1-c1ccccc1 | 170 nM | 880 nM | 4.5 mg/kg | 7.6 mg/kg | 
6 | Oc1nc2cc(Cl)ccc2c(O)c1-c1cccc(Oc2ccsc2)c1 | 1.4 nM | 5 nM | 0.8 mg/kg | 0.8 mg/kg | 
7 | Oc1nc2cc(Cl)ccc2c(O)c1-c1cccc(Cc2ccccc2)c1 |  | 87 nM |  | 3.9 mg/kg | 1.3 mg/kg

Continued by falling IC50 [1], values first:

Row | IC50 [1] | Compound | Kb (Rattus norvegicus) | ED50 (Mus musculus [2]) | ED50 (Mus musculus [3]) | ED50 (Mus musculus [4])
8 | 14 nM | O=C(O)c1cc(O)c2c(I)cc(Cl)cc2n1 | 410 nM | > 250 mg/kg |  | 
9 | 2.2 nM | COCOc1ccc(Cc2cccc(-c3c(O)nc4cc(Cl)ccc4c3O)c2)cc1 | 3.2 nM | 0.5 mg/kg | 0.9 mg/kg | 
10 | 2 nM | O=c1[nH]c2cc(Cl)ccc2c(O)c1-c1cccc(Oc2ccccc2)c1 | 28 nM | 0.9 mg/kg | 0.9 mg/kg | 
